Measurements: patent publication US20230143604A1, “QW DOSING OF GIP RECEPTOR AGONIST PEPTIDE COMPOUNDS AND USES THEREOF” (TAKEDA PHARMACEUTICAL COMPANY LIMITED, priority 2020, published 2023)
Values joined by “and” are separate entries in the source; they are usually repeats but may differ in a detail not shown here. Equal values may be shown once. Read-outs that look alike come from different tables or passages of the source.

How the values were obtained:
[1] = Human plasma protein binding (PPB); assay type: in vitro ADME; conditions: human, plasma
Procedure, shortened: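 Peptides spiked at 1000 nmol/L into pooled human K2-EDTA plasma adjusted to pH 7.4, incubated 30 min at 37 °C, then ultracentrifuged at ~450,000 g, 4 °C for 3 h. Fu derived from LC-MS/MS (MRM) peak area ratios, supernatant versus plasma.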

female beagle dogs = assay: PYY-1119-induced vomiting in dogs; assay type: in vivo; conditions: 3 nmol/kg s.c., 72 hours post-dose (lower line)
Protocol: The GIPR agonist peptide compounds of the present disclosure or vehicle (0.09% [w/v] Tween 80/10% DMSO/PBS) were administered subcutaneously (sc) at 3-10 nmol/kg to female beagle dogs (10 months old), followed by sc injections with Y2R agonist ((4-imidazolecarbonyl-Ser-D-Hyp-Iva-Pya(4)-Cha-Leu(Me)-Asn-Lys-Aib-Thr-Arg-Gln-Arg-Cha-NH2), […]), […]) at 1 hour or specified hours in the table postdose. Emetic episodes were counted for 2 hours after administration (by blinded analysis).

[2] = Dog plasma protein binding (PPB); assay type: in vitro ADME; conditions: dog, serum, pH 7.4
Procedure, shortened: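 Dog serum replaced human serum, with the protocol and analysis otherwise the same as for human plasma protein binding. Values are reported as fraction unbound (Fu,plasma) expressed as a percentage.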

human GLP-1R = target: T1, human GLP-1R (Homo sapiens, UniProt P43220); assay: Human GLP1R agonist activity, intracellular cAMP accumulation; assay type: cell-based; conditions: HEK-293T cells overexpressing human GLP-1R, 1 hr, read-out: Human GLP1R cAMP EC50, HEK293T
T1 construct: HEK-293T cells overexpressing full-length human GLP-1R; FLAG (N); host or cells: HEK-293T
T1 sequence (P43220 24-463): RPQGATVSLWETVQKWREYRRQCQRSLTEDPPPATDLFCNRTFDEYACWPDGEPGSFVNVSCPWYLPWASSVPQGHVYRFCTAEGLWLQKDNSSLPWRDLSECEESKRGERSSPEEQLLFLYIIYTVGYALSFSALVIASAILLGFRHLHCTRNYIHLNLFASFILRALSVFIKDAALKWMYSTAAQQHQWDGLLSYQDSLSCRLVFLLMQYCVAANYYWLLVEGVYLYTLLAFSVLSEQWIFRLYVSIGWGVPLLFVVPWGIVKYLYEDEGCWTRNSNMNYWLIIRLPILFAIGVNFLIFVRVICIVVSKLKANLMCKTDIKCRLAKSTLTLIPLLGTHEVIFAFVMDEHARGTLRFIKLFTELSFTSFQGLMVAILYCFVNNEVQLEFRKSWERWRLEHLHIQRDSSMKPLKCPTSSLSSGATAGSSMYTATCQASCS
Procedure, shortened: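 Frozen assay-ready cells washed and resuspended at 4×10^5 cells/mL in Krebs Ringer buffer, then incubated with compound 1 hr at room temperature in the dark. cAMP read by HTRF (anti-cAMP antibody, d2-cAMP tracer). Normalised to 1 nm GLP-1 (100%) and DMSO (0%).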

Dogs = assay type: in vivo; conditions: 30 nmol/kg s.c.
C57BL/6J mice = assay: Oral glucose tolerance test (OGTT); assay type: in vivo; conditions: 3 nmol/kg s.c., 24 hours before glucose loading
Procedure, shortened: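 Peptide or vehicle given s.c. at 0.1, 0.3, 3 or 10 nmol/kg (peptide-dependent), 24 h before oral 50% dextrose at 5 ml/kg unless stated otherwise. Blood glucose read at 0, 15, 30 and 60 min. % inhibition = (1−(AUC cpd−AUC naïve)/(AUC veh−AUC naïve))×100.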

CC[C@H](C)[C@H](NC(=O)[C@H](CO)NC(=O)[C@H](Cc1ccc(O)cc1)NC(=O)[C@H](CC(=O)O)NC(=O)[C@H](CO)NC(=O)[C@@H](NC(=O)[C@H](Cc1ccccc1)NC(=O)[C@@H](NC(=O)CNC(=O)[C@H](CCC(=O)O)NC(=O)C(C)(C)NC(=O)[C@H](Cc1ccc(O)cc1)NC)[C@@H](C)O)[C@@H](C)CC)C(=O)N[C@@H](C)C(=O)N[C@@H](CC(C)C)C(=O)N[C@@H](CC(=O)O)C(=O)N[C@@H](CCCNC(=N)N)C(=O)N[C@@H](CCCCNC(=O)CNC(=O)CNC(=O)CNC(=O)CNC(=O)CNC(=O)CCCCCCCCCCCCCCCCC(=O)O)C(=O)N[C@@H](C)C(=O)N[C@@H](CCC(N)=O)C(=O)NC(C)(C)C(=O)N[C@@H](CC(=O)O)C(=O)N[C@@H](Cc1ccccc1)C(=O)N[C@H](C(=O)N[C@@H](CC(N)=O)C(=O)N[C@@H](Cc1c[nH]c2ccccc12)C(=O)N[C@@H](CC(C)C)C(=O)N[C@@H](CC(C)C)C(=O)N[C@@H](C)C(=O)N[C@@H](CCC(N)=O)C(=O)N[C@@H](CO)C(=O)N1CCC[C@H]1C(=O)N[C@@H](CO)C(=O)N[C@@H](CO)C(=O)NCC(=O)N[C@@H](C)C(=O)N1CCC[C@H]1C(=O)N1CCC[C@H]1C(=O)N1CCC[C@H]1C(=O)N[C@@H](CO)C(N)=O)C(C)C [Compound 50, Me-Y-Aib-E-G-T-F-I-S-D-Y-S-I-A-L-D-R-Km-A-Q-Aib-D-F-V-N-W-L-L-A-Q-S-P-S-S-G-A-P-P-P-S-NH2]
free unbound peptide in human plasma (in words) [1]: optimum free unbound peptide | Inhibition (%) of PYY-1119-induced emetic event (female beagle dogs): 97% (3 nmol/kg) | fraction unbound at 30 min, 1000 nmol/L [2]: 0.0006 | EC50 (human GLP-1R): 20.4 nM | % inhibition of emetic events at doses (nmol/kg) shown in dog apomorphine model (Dogs; after 8 hrs (upper)): 82% (30 nmol/kg) | % inhibition of emetic events at doses (nmol/kg) shown in dog apomorphine model (Dogs; after 72 hours (lower)): 86% (30 nmol/kg) | Oral Glucose Tolerance Test Percent decrease in blood glucose AUC (%) over 60 mins (C57BL/6J mice): 89% and 69%
